Experiments:
angiotensin II receptor = experiment: Adrenal Glomerulosa Test System: I125-angiotensin II binding to adrenal membranes; conditions: percent inhibition of I125 angiotensin binding at 10^-5 M of antagonist; rat adrenal membranes; 0.1 nM I125-angiotensin II
Method: The ability for compounds of Formula I to block angiotensin II receptor binding was determined using the adrenal glomerulosa assay.
Binding of I^125 -angiotensin II to adrenal membranes was routinely carried out in 96-well filtration plates. Adrenal membranes were prepared from the capsular portion (glomerulosal layer attached) of rat adrenal glands by differential centrifugation. Briefly, capsules were homogenized in a solution containing sucrose, 250 mM; MgCl2, 1 mM; and tris, 5 mM at pH 7.5 and 4° C. using a polytron at setting 5 for 20 seconds. The homogenate was stirred, gently, for 15 minutes at 4° C. and then centrifuged 10 minutes, at 1000×g, 4° C. The supernatant was centrifuged 30 minutes, at 30,000 ×g, 4° C. and the resulting pellet resuspended in 50 mM tris. Membrane preparations were stored in aliquots at -70° C. until used. Binding of I^125 -angiotensin II to adrenal membranes was performed at room temperature for 90 minutes in 96-well plates containing a hydrophilic polyvinylidene fluoride membrane (0.45 μm, millipore-GV multiscreen). Each 250 μl incubate contained the following (final concentration): tris, 50 mM; NaCl, 120 mM; MgCl2, 5 mM; dithiothrietol 1 mM; bovine serum albumin, 0.05%; I^125 -angiotensin II, 0.1 nM; and adrenal membrane protein, 8-15 μg. Antagonists were added in concentrations from 10 nM to 100 μM. Non-specific binding was measured in the presence of 0.1 μM Sar1, Ile8 angiotensin II. Binding was terminated by vacuum filtration. Receptor-ligand complex trapped on filters was washed 3 times with 300 μl ice-cold wash solution (tris, 50 mM; NaCl, 120 mM; MgCl2, 5 mM; dithiothrietol, 1 mM). Filter discs were dried, punched out and counted in a gamma counter at 52% efficiency. Specific binding represented 96% of total binding (approximately 150 fmol angiotensin II/mg protein). Data are expressed as the percent inhibition of I^125 angiotensin binding at 10^-5 M of antagonist.

[1] = biological target: T1, angiotensin-induced vasoconstriction (rabbit aorta) (Oryctolagus cuniculus, UniProt P34976); experiment: Rabbit Aorta Test System: antagonism of angiotensin II-induced contraction of aortic rings; assay type: cell-based, New Zealand white rabbits; conditions: pA2 = -log KB; KB = [molar concentration of antagonist]/[(EC50 AII with antagonist/EC50 AII without antagonist)-1]; 30 min incubation; AII 10^-10 to 10^-7 M; read-out: Rabbit Aorta (pA2) (converted)
T1 construct: the thoracic aortas were removed and cleaned of excess fat and connective tissue; from tissue; host or cells: thoracic aorta rings of New Zealand white rabbits
T1 sequence (P34976 1-359): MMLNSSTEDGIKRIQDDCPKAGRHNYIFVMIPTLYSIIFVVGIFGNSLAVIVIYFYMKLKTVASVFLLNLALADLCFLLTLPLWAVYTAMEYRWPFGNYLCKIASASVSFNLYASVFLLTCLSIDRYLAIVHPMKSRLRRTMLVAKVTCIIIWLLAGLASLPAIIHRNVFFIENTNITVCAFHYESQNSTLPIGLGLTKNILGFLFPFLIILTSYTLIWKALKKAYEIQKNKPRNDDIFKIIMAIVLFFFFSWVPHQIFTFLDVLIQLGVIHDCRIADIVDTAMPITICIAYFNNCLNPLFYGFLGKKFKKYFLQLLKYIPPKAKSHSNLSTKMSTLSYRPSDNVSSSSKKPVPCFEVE
Method: The ability to antagonize angiotensin-induced vasoconstriction was evaluated in the rabbit aorta test system.
New Zealand white rabbits (Hazelton, 2-3 kg) were sacrificed by cervical dislocation and the thoracic aortas were removed and cleaned of excess fat and connective tissue. Rings of tissue (3 mm wide) were mounted in 10 ml tissue baths between 2 L-shaped stainless steel hooks. The lower hook was attached to a stationary rod and the upper hook to a force displacement transducer (Grass model FT.03). The bath chambers were maintained at 37° C., aerated with 95% O2 /5% CO2, and contained physiological solution of the following composition (mM): NaCl, 117; glucose, 5.6; NaH2 PO4, 1.0; MgSO4, 0.7; KCl, 5.2; CaCl2, 1.8; NaHCO3, 26; and phentolamine HCl, 0.003.
Rings were equilibrated for 1 hour with 2 g of tension. During the equilibration period, the tissues were washed by overflow every 15 minutes. Rings were then exposed to 10^-8 M angiotensin II (AII) and were allowed to contract until a steady state was reached. Tissues were then washed every 15 minutes for 1 hour. This was repeated every hour until the AII response stabilized. A cumulative concentration-response curve to AII (10^-10 to 10^-7 M) was then obtained. At the conclusion of the concentration-response curve, tissues were washed every 2 minutes until baseline tension was reached, then every 15 minutes for 30 minutes. Compounds were added in a volume of 10 μl DMSO and allowed to incubate for 30 minutes before repeating the concentration-response curve to AII. Contractions to AII were expressed as a percent of the maximum contraction obtained in the control curve (the first AII concentration-response curve). EC50 's (concentration that contracted the tissues to 1/2 the control maximum) for each curve were calculated using a 4 parameter logistics model (NonLin, SAS institute).

| SMILES | Adrenal Glomerulosa (% Inhibition of Binding) (angiotensin II receptor) | Kb [1] |
| --- | --- | --- |
| CCCCCCC(C(=O)O)n1cnc(NC(=O)c2ccc(O)c(O)c2)c1 (stereo not drawn) [Example 79, α-Hexyl-4-[(3,4-dihydroxybenzoyl)amino]-1H-imidazole-1-acetic acid (1.75 hydrate)] | 18% | 11 µM |
| CCCCCCC(C(=O)O)n1cnc(C(=O)Nc2ccccc2CO)c1.Cl (stereo not drawn) [Example 83, α-Hexyl-4-({[2-(hydroxymethyl)phenyl]-amino}carbonyl)-1H-imidazole-1-acetic acid hydrochloride] | 53% | 3.89 µM |
| CCCCCCC(C(=O)O)n1cnc(C(=O)Nc2ccccc2CCCCO)c1.Cl (stereo not drawn) [Example 84, α-Hexyl-4-({[2-(4-hydroxybutyl)phenyl]-amino}carbonyl)-1H-imidazole-1-acetic acid hydrochloride] | 77% | 2.29 µM |
| CCCCC(C(=O)O)n1cnc(C(=O)Nc2ccccc2O)c1.Cl (stereo not drawn) [Example 89, α-Butyl-4-{[(2-hydroxyphenyl)amino]-carbonyl}-1H-imidazole-1-acetic acid hydrochloride] | 54% | 38.9 µM |
| CCCCCCC(C(=O)O)c1ccc(Cc2ccccc2C(=O)O)cc1 (stereo not drawn) [Example 94, 4-[(2-Carboxyphenyl)methyl]-α-hexyl-benzeneacetic acid] | 58% | 1.66 µM |

The remaining lines, values ahead:

| Adrenal Glomerulosa (% Inhibition of Binding) (angiotensin II receptor) | Kb [1] | SMILES |
| --- | --- | --- |
| 21% | 7.94 µM | CCCCCCC(C(=O)O)n1cnc(NC(=O)c2cccc(O)c2)c1 (stereo not drawn) [Example 78, α-Hexyl-4-[(3-hydroxybenzoyl)amino]-1H-imidazole-1-acetic acid hemihydrate] |
| 0% | 15.8 µM | CCCCCCC(C(=O)O)n1cnc(C(=O)Nc2cccc(CO)c2)c1.Cl (stereo not drawn) [Example 85, α-Hexyl-4-({[3-(hydroxymethyl)phenyl]-amino}carbonyl)-1H-imidazole-1-acetic acid hydrochloride] |
| 57% | 3.24 µM | CCCCCCC(C(=O)O)n1cnc(C(=O)Nc2ccccc2CCO)c1.Cl (stereo not drawn) [Example 86, α-Hexyl-4-({[2-(2-hydroxyethyl)phenyl]-amino}carbonyl)-1H-imidazole-1-acetic acid hydrochloride] |
| 7% | 23.4 µM | CCCCCCC(C(=O)O)n1cnc(C(=O)Nc2ccc(CCO)cc2)c1.Cl (stereo not drawn) [Example 87, α-Hexyl-4-({[4-(2-hydroxyethyl)phenyl]-amino}carbonyl)-1H-imidazole-1-acetic acid hydrochloride] |
| 59% | 0.372 µM | CCCCCCC(C(=O)O)n1cnc(NC(=O)c2cccc(N)c2C(=O)O)c1 (stereo not drawn) [Example 96, α-Hexyl-4-[(3-amino-2-carboxybenzoyl)amino]-1H-imidazole-1-aceticacid] |
